Test results reported in ChEMBL document CHEMBL3120058, “Integrated strategies for identifying leads that target the NS3 helicase of the hepatitis C virus” (J Med Chem, 2014).

Tests used:
[1] = Inhibition of HCV H genotype 1a N-terminal hexa-histidine-tagged NS3 helicase expressed in Escherichia coli BL21(DE3) using DNA oligonucleotide duplex as substrate after 1 hr by unwinding assay; set-up: species or system Hepatitis C virus (isolate H)
[2] = Binding affinity to HCV H genotype 1a N-terminal hexa-histidine-tagged NS3 helicase expressed in Escherichia coli BL21(DE3) assessed as resonance peak2 by STD NMR spectroscopic analysis; set-up: species or system Hepatitis C virus (isolate H)
[3] = Binding affinity to HCV H genotype 1a N-terminal hexa-histidine-tagged NS3 helicase expressed in Escherichia coli BL21(DE3) assessed as resonance peak1 by STD NMR spectroscopic analysis; set-up: species or system Hepatitis C virus (isolate H)
[4] = Binding affinity to HCV H genotype 1a N-terminal hexa-histidine-tagged NS3 helicase expressed in Escherichia coli BL21(DE3) at pH 6.5 by circular dichroism assay; set-up: species or system Hepatitis C virus (isolate H)
[5] = Binding affinity to HCV H genotype 1a N-terminal hexa-histidine-tagged NS3 helicase expressed in Escherichia coli BL21(DE3) in ITC/NMR buffer at pH 7.5 by circular dichroism assay; set-up: species or system Hepatitis C virus (isolate H)
[6] = Binding affinity to HCV H genotype 1a N-terminal hexa-histidine-tagged NS3 helicase expressed in Escherichia coli BL21(DE3) by isothermal titration calorimetry; set-up: species or system Hepatitis C virus (isolate H)
[7] = Selectivity ratio for HCV H genotype 1a N-terminal hexa-histidine-tagged NS3 helicase over human RNA helicase A

SMILES	IC50 [1]	also measured
O=C(O)Cc1cn(Cc2cccc(Cl)c2)c2cc(Br)ccc12	94 µM	
COc1ccc([N+](=O)[O-])cc1Cn1cc(CC(=O)O)c2ccccc21	14 µM	
Nc1cc(N)cc(-c2ccc3c(CC(=O)O)cn(Cc4cccc(Cl)c4)c3c2)c1	35 µM	
O=C(O)Cc1cn(-c2ccc([N+](=O)[O-])cc2C(F)(F)F)c2ccc(Br)cc12	140 µM	
O=C(O)Cc1cn(Cc2cccc(Cl)c2)c2cc(-c3ccccc3)ccc12	140 µM	
COc1ccc([N+](=O)[O-])cc1Cn1cc(CC(=O)O)c2ccc(-c3cc(N)cc(N)c3)cc21	3 µM	Kd [2]: 28 µM; Kd [3]: 32 µM; Kd [4]: 3.5 µM; Kd [5]: 41 µM; Kd [6]: 33 µM; Selectivity ratio [7]: 36
Nc1cc(-c2ccc3c(CC(=O)O)cn(Cc4cccc(Cl)c4)c3c2)cc([N+](=O)[O-])c1	140 µM	
O=C(O)Cc1c[nH]c2ccccc12 [INDOLE-3-ACETIC ACID]	500 µM	

Continued, in another order:

IC50 [1]	SMILES	also measured
31 µM	C#Cc1cccc(Cn2cc(CC(=O)O)c3ccccc32)c1	
46 µM	O=C(O)Cc1cn(Cc2cccc([N+](=O)[O-])c2)c2ccccc12	
> 500 µM	Nc1cccc(Cn2cc(CC(=O)O)c3ccccc32)c1	
52 µM	O=C(O)Cc1cn(Cc2cccc(I)c2)c2ccccc12	
71 µM	O=C(O)Cc1cn(Cc2cccc(Cl)c2)c2ccccc12	
240 µM	O=C(O)Cc1cn(Cc2ccccc2)c2ccccc12	
94 µM	O=C(O)Cc1cn(Cc2cccc(Cl)c2)c2cc(Cl)ccc12	
85 µM	Cc1cccc(Cn2cc(CC(=O)O)c3ccccc32)c1	
150 µM	O=C(O)Cc1cn(Cc2cccc(O)c2)c2ccccc12	
